This is an account of results in patent US11981661B2, “Heterocyclic compounds” (Hoffmann-La Roche Inc., priority 2020, dated 2024).

A word on the IC50: it is the midpoint of a concentration-inhibition curve. Higher therefore signals a need for much substance.

The assay has as its target T1, MAGL (Homo sapiens, UniProt Q99685).
T1 sequence (Q99685 1-303): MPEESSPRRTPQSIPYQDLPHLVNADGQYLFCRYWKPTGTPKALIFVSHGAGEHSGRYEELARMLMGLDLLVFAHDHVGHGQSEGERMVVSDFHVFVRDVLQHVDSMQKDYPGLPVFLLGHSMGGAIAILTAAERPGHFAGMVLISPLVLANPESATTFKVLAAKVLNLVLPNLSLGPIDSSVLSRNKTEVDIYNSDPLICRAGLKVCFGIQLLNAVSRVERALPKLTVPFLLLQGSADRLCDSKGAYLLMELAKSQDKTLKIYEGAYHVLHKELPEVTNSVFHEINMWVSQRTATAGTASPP
As to the kind of experiment: 2-AG assay (MAGL inhibitory activity, hydrolysis of 2-arachidonoylglycerol followed by mass spectrometry). The conditions noted are these: 50 pM MAGL, 8 μM 2-arachidonoylglycerol, 15 min preincubation, 30 min incubation at RT, concentration range 12.5 μM to 0.8 pM. Type of assay: biochemical. The procedure, abridged: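 50 pM MAGL preincubated 15 min at RT with compound (12.5 μM to 0.8 pM) in 50 mM TRIS, 1 mM EDTA, 0.01% Tween, then 8 μM 2-arachidonoylglycerol for 30 min at RT. Arachidonic acid measured by RapidFire SPE–triple quadrupole MS in negative mode, normalised to d8-arachidonic acid.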

Compound `CS(=O)(=O)c1ccc(CN2CCC3(CC2)CN(C(=O)CC[C@@H]2COC(=O)N2)C3)cc1` [Example 192, (4R)-4-[3-[7-[(4-Methyl-sulfonylphenyl)methyl]-2,7-diazaspiro[3.5]nonan-2-yl]-3-oxo-propyl] oxazolidin-2-one] returned a half-inhibitory concentration (IC50) of 1220 nM.
Next, `CS(=O)(=O)c1cccc(CN2CCC3(CC2)CN(C(=O)CC[C@@H]2COC(=O)N2)C3)c1` [Example 193, (4R)-4-[3-[7-[(3-Methyl-sulfonylphenyl)methyl]-2,7-diazaspiro[3.5]nonan-2-yl]-3-oxo-propyl] oxazolidin-2-one]: 794 nM; `O=C1N[C@H](CCC(=O)N2CC3(CCN(Cc4ccc(S(=O)(=O)C(F)(F)F)cc4)CC3)C2)CO1` [Example 194, (4R)-4-[3-Oxo-3-[7-[[4-(trifluoro-methylsulfonyl)phenyl]methyl]-2,7-diazaspiro[3.5]nonan-2-yl]propyl] oxazolidin-2-one]: 61 nM; `O=C1N[C@H](CCC(=O)N2CC3(CCN(Cc4cccc(S(=O)(=O)C(F)(F)F)c4)CC3)C2)CO1` [Example 195, (4R)-4-[3-Oxo-3-[7-[[3-(trifluoro-methylsulfonyl)phenyl]methyl]-2,7-diazaspiro [3.5]nonan-2-yl]propyl] oxazolidin-2-one]: 28 nM.
Then `O=C1N[C@H](CCC(=O)N2CC3(CCN(Cc4ccc(C(F)(F)F)nc4)CC3)C2)CO1` [Example 196, (4R)-4-[3-Oxo-3-[7-[[6-(trifluoro-methyl)-3-pyridyl]methyl]-2,7-diazaspiro [3.5]nonan-2-yl]propyl] oxazolidin-2-one], with 507 nM; and `O=C1N[C@H](CCC(=O)N2CC3(CCN(Cc4ccc(C(F)(F)F)cn4)CC3)C2)CO1` [Example 197, (4R)-4-[3-Oxo-3-[7-[[5-(trifluoro-methyl)-2-pyridyl]methyl]-2,7-diazaspiro [3.5]nonan-2-yl]propyl] oxazolidin-2-one], with 324 nM; and `O=C1N[C@H](CCC(=O)N2CC3(CCC(Cc4ccc(C(F)(F)F)nc4)C3)C2)CO1` (stereo partly drawn) [Example 198, (4R)-4-[3-Oxo-3-[6-[[6-(trifluoro-methyl)-3-pyridyl]methyl]-2-azaspiro[3.4]octan-2-yl]propyl]oxazolidin-2-one], with 73 nM.
Then `COC(=O)c1cc(Cl)ccc1Oc1ccc(C2CN(C(=O)CC[C@@H]3COC(=O)N3)C2)cn1` [Example 199, Methyl 5-chloro-2-[[5-[1-[3-[(4R)-2-oxooxazolidin-4-yl]propanoyl]azetidin-3-yl]-2-pyridyl]oxy]benzoate], with 14 nM.
Turning to `O=C1N[C@H](CCC(=O)N2CC(c3ccc([C@H]4C[C@@H](C(F)(F)F)C4)nc3)C2)CO1` [Example 202, Cis-(4R)-4-[3-Oxo-3-[3-[6-[3-(trifluoromethyl)cyclobutyl]-3-pyridyl]azetidin-1-yl]propyl]oxazolidin-2-one], the IC50 worked out at 37 nM.
Next, `O=C1N[C@H](CCC(=O)N2CC(c3ccc([C@H]4C[C@H](C(F)(F)F)C4)nc3)C2)CO1` [Example 203, Trans-(4R)-4-[3-Oxo-3-[3-[6-[3-(trifluoromethyl)cyclobutyl]-3-pyridyl]azetidin-1-yl]propyl]oxazolidin-2-one]: 75 nM; `O=C1N[C@H](CCC(=O)N2CC(c3ccc(N4CCC(O)(C(F)(F)F)C4)nc3)C2)CO1` (stereo partly drawn) [Example 205, (+)- or (−)-(4R)-4-[3-[3-[6-[3-Hydroxy-3-(trifluoromethyl)pyrrolidin-1-yl]-3-pyridyl]azetidin-1-yl]-3-oxo-propyl]oxazolidin-2-one]: 170 nM; `O=C1N[C@H](CCC(=O)N2CC(c3ccc(N4CCC(O)(C(F)(F)F)C4)nc3)C2)CO1` (stereo partly drawn) [Example 207, (+)- or (−)-(4R)-4-[3-[3-[6-[3-Hydroxy-3-(trifluoromethyl)pyrrolidin-1-yl]-3-pyridyl]azetidin-1-yl]-3-oxo-propyl]oxazolidin-2-one]: 17 nM.
